The text below walks through data of patent US11236378B2 (priority 2015, dated 2022).

This data set has as its system HEK293T cells. To be noted: human.

With `COc1ncc(-c2ccc3nc(N)n(-c4ccc(N5CCOCC5)cc4)c3c2)cc1S(=O)(=O)Nc1ccccc1F` [A1, 5-(2-amino-1-(4-(4-morpholinyl)phenyl)-1H-benzimidazol-6-yl)-N-(2-fluorophenyl)-2-methoxy-3-pyridinesulfonamide], the “concentration that killed most of the cells” value is given as at least 250 nM.
